# Tested on: NK cells
# Assay: Sorted NK cell populations (CD57/NKG2C) cultured with CHIR99021: maturation
# Assay type: cell-based, human
# Details: 7 day
# Description: NK Cell Sorting: CD3/CD19 depleted PBMC were labelled with 10 uM e450 proliferation dye (eBioscience) and stained with FITC-conjugated anti-CD57, PE-Conjugated anti-NKG2C, APC-conjugated anti-CD56, and Percp-Cy5.5-conjugated anti-CD3 antibodies (BD Biosciences and R&D Systems). Four populations of CD3-CD56+NK cells were sorted according to the expression of CD57 and NKG2C; CD57+NKG2C−, CD57+NKG2C+, CD57-NKG2C+, and CD57-NKG2C−. Sorted NK cell populations were cultured at a 2:1 ratio of NK:monocytes in BO media with 10 ng/ml IL-15 and CHIR99021 or vehicle control. Stained but unsorted cells were cultured in parallel as a control.
# CD3/CD19 depleted PBMC were labelled with e450 proliferation dye, and CD56+CD3− NK cells were sorted in bulk or were sorted into 4 populations based on expression of CD57 and NKG2C expression (FIG. 5A). Total, unfractionated, NK cells were cultured alongside CD57+NKG2C− (Q1), CD57+NKG2C+(Q2), CD57−NKG2C+(Q3), CD57−NKG2C− (Q4) sorted NK cells with either (1) cytokine (10 ng/ml IL15) and 5 μM CHIR99021, or (2) cytokine only with vehicle control (for example, DMSO only) (FIG. 5B) with autologous CD14+ monocytes in a 1:1 ratio of NK cells:monocytes. After the 7 day culture period, cultures of each sorted population were stained for flow cytometry and analyzed for proliferation and cell surface marker expression. […]
compound,measurement,setting,value
Cc1c[nH]c(-c2cnc(NCCNc3ccc(C#N)cn3)nc2-c2ccc(Cl)cc2Cl)n1 [CHIR99021],expression of CD57 in Q3 and Q4 sorted cells (CD57− before culturing),10 ng/ml IL15 + 5 μM CHIR99021,upregulated
same,CD57 expression in the total NK cells,"10 ng/ml IL15 + 5 μM CHIR99021, unsorted",significant increase
